Experimental data as given in the Deep4Chem optical property database.

Assay: photoluminescence quantum yield (fraction); solvent given as SMILES

With `CN(C)c1ccc2c(c1)COc1c-2oc2ccccc2c1=O` the photoluminescence quantum yield (in C1CCCCC1) was 0.5, the photoluminescence quantum yield (in C1CCOC1) was 0.91 and the photoluminescence quantum yield (in CC#N) was 0.86. The photoluminescence quantum yield (in CCOC(C)=O) was 0.95, the photoluminescence quantum yield (in CCOCC) was 1 and the photoluminescence quantum yield (in CO) was 0.68. It also gave a photoluminescence quantum yield (in Cc1ccccc1) of 1.

In the case of `CCCCC(CC)Cn1c2cc(C#N)ccc2c2ccc(C#Cc3ccc4ccc5ccc(C#Cc6ccc7c8ccc(C#N)cc8n(CC(CC)CCCC)c7c6)c6ccc3c4c56)cc21` (configuration not stated), the photoluminescence quantum yield (in ClCCl) is reported as 0.51.

`CCCCN1/C(=C/C=C/C2=[N+](C)c3ccccc3C2(C)C)C(C)(C)c2cc(Br)ccc21` showed a photoluminescence quantum yield (in CS(C)=O) of 0.12.

In the case of `COc1ccc(-c2cc(-c3ccc(OC)cc3)c3c(N)nc(N4CCCC4)c(C#N)c3n2)cc1`, the photoluminescence quantum yield (in CC#N) is reported as 0.095 and the photoluminescence quantum yield (in c1ccccc1) is reported as 0.077.

For `N#Cc1ccc(N/N=C/c2ccc3ccccc3c2O)cc1`, the photoluminescence quantum yield (in CO) was 0.13.

With `COc1ccc(C2=[N+]3C(=Nc4c(-c5ccccc5-c5ccc(C(C)(C)C)cc5)cc(-c5ccc(OC)cc5)n4[B-]3(F)F)c3c2c2cc(C(C)(C)C)ccc2c2ccccc32)cc1` the photoluminescence quantum yield (in Cc1ccccc1) was 0.38.

Work on `CC1=N/C(=C\c2cccc(N(C)C)c2)C(=O)N1CCO` yielded a photoluminescence quantum yield (in C1CCOC1) of 0.12, a photoluminescence quantum yield (in CC#N) of 0.02 and a photoluminescence quantum yield (in CCCCCC) of 0.43.

Compound `COc1ccc(-c2cc3c(s2)c(-c2ccccc2)cc(=O)n3C)cc1` has a photoluminescence quantum yield (in CC#N) of 0.42 and a photoluminescence quantum yield (in ClCCl) of 0.46.

With `O=C([O-])c1ccccc1-c1c2ccc(=O)cc-2oc2cc([O-])ccc12` the photoluminescence quantum yield (in O) was 0.95.

Work on `Cc1ccc(/C=C/c2nc(-c3ccc([N+](=O)[O-])cc3)[nH]c2/C=C/c2ccc(C)cc2)cc1` yielded a photoluminescence quantum yield (in ClCCl) of 0.

In the case of `[O-][n+]1c(/C=C/c2ccccc2)nc(Nc2ccccc2)c2c1CCCC2`, the photoluminescence quantum yield (in ClCCl) is reported as 0.16.

`CCCCCCCCCCOc1ccc2c3c(oc2c1)C1=C2C(=O)N4C=Cc5c(oc6cc(OCCCCCCCCCC)ccc56)C4=C2C(=O)N1C=C3` gave a photoluminescence quantum yield (in CN(C)C=O) of 0.5 and a photoluminescence quantum yield (in ClC(Cl)Cl) of 0.7.

With `C(=C\N1CCCC1)/c1nc2ccccc2nc1-c1ccccc1` the photoluminescence quantum yield (in C1CCCCC1) was 0.186, the photoluminescence quantum yield (in C1CCOC1) was 0.445 and the photoluminescence quantum yield (in CC#N) was 0.199. It also gave a photoluminescence quantum yield (in CC(C)=O) of 0.284, a photoluminescence quantum yield (in CCO) of 0.023 and a photoluminescence quantum yield (in CO) of 0.006. It also gave a photoluminescence quantum yield (in CS(C)=O) of 0.112, a photoluminescence quantum yield (in Cc1ccccc1) of 0.49 and a photoluminescence quantum yield (in ClCCl) of 0.598.

Work on `C(=C\c1ccc(/C=C/c2ccc(N(c3ccccc3)c3ccccc3)cc2)c2nsnc12)/c1ccc(N(c2ccccc2)c2ccccc2)cc1` yielded a photoluminescence quantum yield (in C1CCOC1) of 0.228, a photoluminescence quantum yield (in CCOC(C)=O) of 0.275 and a photoluminescence quantum yield (in CN(C)C=O) of 0.061. It also gave a photoluminescence quantum yield (in Cc1ccccc1) of 0.345, a photoluminescence quantum yield (in ClC(Cl)Cl) of 0.148 and a photoluminescence quantum yield (in ClCCl) of 0.137.

Work on `COc1ccc(C#Cc2nc(C#Cc3ccc(OC)cc3)c(C#Cc3ccc(OC)cc3)c(C#Cc3ccc(OC)cc3)c2C#Cc2ccc(OC)cc2)cc1` yielded a photoluminescence quantum yield (in ClCCl) of 0.81.

`COc1ccccc1-c1nc2c3cccnc3c3ncccc3c2n1-c1ccccc1` gave a photoluminescence quantum yield (in Cc1ccccc1) of 0.064.

In the case of `CC(C)(C)c1ccc2c(c1)c1cc(C(C)(C)C)ccc1n2-c1c(C#N)c(-n2c3ccc(C(C)(C)C)cc3c3cc(C(C)(C)C)ccc32)c(-n2c3ccc(C(C)(C)C)cc3c3cc(C(C)(C)C)ccc32)c(-n2c3ccc(C(C)(C)C)cc3c3cc(C(C)(C)C)ccc32)c1-n1c2ccc(C(C)(C)C)cc2c2cc(C(C)(C)C)ccc21`, the photoluminescence quantum yield (in Cc1ccccc1) is reported as 0.86.

In the case of `COc1ccc(-c2cc(C)nc(-c3ccc(-n4c5ccccc5c5ccccc54)cc3)n2)cc1`, the photoluminescence quantum yield (in C1CCOC1) is reported as 0.47, the photoluminescence quantum yield (in CN(C)C=O) is reported as 0.66 and the photoluminescence quantum yield (in Cc1ccccc1) is reported as 0.34. For the same compound, the photoluminescence quantum yield (in ClC(Cl)Cl) was 0.68.

Compound `O=P1(c2ccccc2)C(c2cccs2)=Cc2ccccc21` (configuration not stated) has a photoluminescence quantum yield (in C1CCOC1) of 0.23.

With `Cn1c(=O)c2c(ncn2C)n(C)c1=O` the photoluminescence quantum yield (in O) was 0.
